{"source": "patent US20100021567A1", "about": "“Peganine Isolated from Anisotes Trisulcus L. as a Smoking Deterrent and Anorxigenic Agent” (priority 2006, published 2010)", "key": {"[1]": {"details": "cited from earlier work"}, "[2]": {"test_system": "Male Wistar rats", "test": "Nicotine and food consumption in rats", "assay_type": "in vivo", "protocol": "Male Wistar rats (200 g body weight) were divided at random into various groups (N=6 animals per group). Each animal was placed in a stainless steel cage and provided with a known weight of normal rat chow food pellets and drinking bottle containing a known volume of aqueous 0.025% sodium carboxymethylcellulose containing either nicotine acid tartarate to provide a final concentration of 40 μg/ml (in case of control groups) or the same concentration of nicotine plus the indicated concentrations of the whole extract, one of its fractions or peganine. The latter were added in form of their emulsions in 0.25% aqueous sodium carboxymethylcellulose in volumes that provide a final concentration of 0.025% of sodium carboxymethylcellulose in the drinking fluid. The animals were allowed both food and the drinking liquid ad libitum. The room temperature where the animals were placed was maintained at 23±2° C. The light cycle was kept at 12 h light and 12 h dark. The relative humidity was maintained at 75±5%. Both food and drinking liquid consumptions were measured every 2 days and at the end of the treatment which continued for complete seven consecutive days.\nAll results were reported as their means±s. e. mean with N=number of experiments. Statistical significance between control and treated groups were performed using student's t-test."}, "[3]": {"details": "in vivo; cited from earlier work"}, "[4]": {"test_system": "Albino mice", "test": "Nicotine-induced convulsions and death in mice", "assay_type": "in vivo", "protocol": "Albino mice were divided into different groups (N=5) and injected with different doses of nicotine dissolved in water. The animals were injected (i.p) with doses 0.8, 1.6, 3.2 and 6.4 mg/kg. The animals were continuously observed for 2 hours for appearance of any changes in behavior such as tremors, convulsions (clonic or tonic), abnormal movements changes in tail position and shapes, changes in locomotor activity and death.\nThen after 5 minutes nicotine LD25 was then administered and the animals were observed continuously for any changes in behavior, convulsions or death. The time of convulsions and death were recorded."}, "[5]": {"test_system": "dopamine turnover in the mesolimbic system", "details": "dose 5.6 mg/kg; nicotine 1 mg/kg; rats; cited from earlier work"}, "[6]": {"details": "peganine 140 mg/100 ml (1.4 mg/ml) + nicotine 40 μg/ml, vs control"}, "[7]": {"details": "peganine 140 mg/100 ml + nicotine 40 μg/ml in drinking water, 7 days"}}, "note": "Entries after “also recorded” stand apart in the source; their conditions may differ."}
{"compound": "O[C@H]1CCN2Cc3ccccc3N=C12", "note": "[peganine, 1,2,3,9-tetrahydropyrolo[2,1-b]quinazolin-3-ol]", "values": [{"measurement": "Effect on isolated gut", "setting": "[1]; isolated gut", "value": "inhibit peristalsis of isolated gut"}, {"measurement": "Cardiac effect", "setting": "[1]; isolated heart", "value": "negative inotropic effect of peganine with reduced coronary flow"}, {"measurement": "% decrease in food consumed", "setting": "[2]; [6]", "value": 77.8, "unit": "%"}, {"measurement": "% decrease in nicotine consumed", "setting": "[2]; [6]", "value": 79, "unit": "%"}, {"measurement": "Liquid consumed daily per 200 g rat per day", "setting": "[2]; [7]", "value": "5.5 ± 0.13", "unit": "mL"}, {"measurement": "Quantity of food consumed per 200 g rat per day", "setting": "[2]; [7]", "value": "5.66 ± 0.3", "unit": "g"}, {"measurement": "Quantity of nicotine consumed per day", "setting": "[2]; [7]", "value": 0.22, "unit": "mg"}]}
{"compound": "(−)-cytisine", "values": [{"measurement": "Blood brain barrier penetrability", "setting": "[3]", "value": "poor blood brain barrier penetrability"}]}
{"compound": "CN1CCCC1c1cccnc1", "note": "(stereo not drawn) [Nicotine]", "values": [{"measurement": "Actions", "setting": "[4]; Nicotine 1.6 mg/kg (i.p)", "value": "f) No death; also recorded: a) Increase in locomotor activity; also recorded: b) Raising of tail; also recorded: c) Tremors; also recorded: d) Shaking of the body; also recorded: e) Increase in respiratory rate"}, {"measurement": "Actions", "setting": "[4]; Nicotine 3.2 mg/kg (i.p)", "value": "a) Tremors; also recorded: b) Fanning of tail; also recorded: c) Convulsions (Clonic-type); also recorded: d) Tremors; also recorded: e) Salivation; also recorded: f) No death"}, {"measurement": "Actions", "setting": "[4]; Nicotine 6.4 mg/kg (i.p)", "value": "a) Circular movements; also recorded: b) Convulsions; also recorded: c) Death after 3 minutes"}]}
{"compound": "c1cnc2cc3c(cc2n1)[C@@H]1CNC[C@H]3C1", "note": "[vareniciline]", "values": [{"measurement": "Effect on nicotine-induced increase in dopamine turnover", "setting": "[5]", "value": "significantly blocked"}]}
